Laboratory results reported in ChEMBL document CHEMBL1201862, “PubChem BioAssay data set” (2004).
Activity calls are given as the source filed them.

Experiments:
[1] = molecular target: T1, Ubiquitin-conjugating enzyme E2 N (Homo sapiens, UniProt P61088); assay type: functional
T1 sequence (P61088 whole entry): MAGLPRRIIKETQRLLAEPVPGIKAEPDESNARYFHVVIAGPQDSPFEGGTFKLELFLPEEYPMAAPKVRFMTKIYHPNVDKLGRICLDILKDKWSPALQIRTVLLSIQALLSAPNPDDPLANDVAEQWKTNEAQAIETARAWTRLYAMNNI

[2] = molecular target: T1, Ubiquitin-conjugating enzyme E2 N; assay type: functional; remark: listed apart in the source
Bcl-2-related protein A1 = molecular target: T2, Bcl-2-related protein A1 (Mus musculus, UniProt Q07440); assay type: functional;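 further: confirmatory dose–response counterscreen on Bfl-1, used to check hits from a UBC13 polyubiquitin inhibitor campaign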
T2 sequence (Q07440 whole entry): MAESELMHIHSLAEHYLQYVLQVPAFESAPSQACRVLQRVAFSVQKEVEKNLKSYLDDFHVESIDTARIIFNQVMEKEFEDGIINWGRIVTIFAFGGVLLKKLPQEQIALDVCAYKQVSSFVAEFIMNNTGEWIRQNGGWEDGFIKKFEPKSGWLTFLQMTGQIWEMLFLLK

Cytochrome P450 2C19 = Cytochrome P450 2C19 (Homo sapiens, UniProt P33261); experiment: Cytochrome panel assay with activity outcomes. Panel member name: p450-cyp2c19 Compounds with AC50 equal or less than 10 uM are considered active; assay type: functional; conditions: read-out: AC50
Sequence of Cytochrome P450 2C19 (P33261 whole entry): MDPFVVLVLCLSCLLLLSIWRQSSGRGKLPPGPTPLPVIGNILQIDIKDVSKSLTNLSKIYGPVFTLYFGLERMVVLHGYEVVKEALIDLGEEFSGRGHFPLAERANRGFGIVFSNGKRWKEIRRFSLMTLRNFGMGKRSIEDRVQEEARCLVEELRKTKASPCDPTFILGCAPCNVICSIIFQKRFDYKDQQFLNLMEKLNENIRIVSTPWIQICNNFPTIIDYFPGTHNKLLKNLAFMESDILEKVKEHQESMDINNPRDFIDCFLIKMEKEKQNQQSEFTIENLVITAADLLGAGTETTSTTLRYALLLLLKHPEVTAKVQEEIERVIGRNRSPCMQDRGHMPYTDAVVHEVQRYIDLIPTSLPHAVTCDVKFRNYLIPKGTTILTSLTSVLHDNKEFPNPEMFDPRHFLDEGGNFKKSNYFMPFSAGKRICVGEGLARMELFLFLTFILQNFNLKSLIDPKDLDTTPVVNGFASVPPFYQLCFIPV

Cytochrome P450 2D6 = Cytochrome P450 2D6 (Homo sapiens, UniProt P10635);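 further: CYP2D6 member of a cytochrome P450 panel assay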
Sequence of Cytochrome P450 2D6 (P10635 whole entry): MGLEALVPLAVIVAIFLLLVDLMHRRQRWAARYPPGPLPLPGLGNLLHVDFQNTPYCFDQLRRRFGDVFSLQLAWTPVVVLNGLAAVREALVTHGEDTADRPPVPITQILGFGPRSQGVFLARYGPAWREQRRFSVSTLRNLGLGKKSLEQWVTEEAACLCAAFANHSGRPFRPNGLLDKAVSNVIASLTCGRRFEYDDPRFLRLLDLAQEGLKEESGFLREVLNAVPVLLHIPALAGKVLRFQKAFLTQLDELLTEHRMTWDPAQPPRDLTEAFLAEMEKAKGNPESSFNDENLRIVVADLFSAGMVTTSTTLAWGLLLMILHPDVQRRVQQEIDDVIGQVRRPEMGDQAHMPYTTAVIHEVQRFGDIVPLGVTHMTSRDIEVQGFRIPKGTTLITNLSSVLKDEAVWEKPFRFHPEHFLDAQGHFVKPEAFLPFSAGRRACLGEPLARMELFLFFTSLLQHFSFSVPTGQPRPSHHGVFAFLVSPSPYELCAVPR

[3] = molecular target: T3, Microphthalmia-associated transcription factor (Homo sapiens, UniProt O75030); experiment: reducers of TRPM1 reporter luminescence, concentration series – cell-based, SK-MEL-5, cherry-picked, set 3, MITF inhibitor project, dose response (AID 493073); assay type: functional;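 further: SK-MEL-5 melanoma cells with luciferase driven by the MITF target TRPM1 promoter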
T3 sequence (O75030 whole entry): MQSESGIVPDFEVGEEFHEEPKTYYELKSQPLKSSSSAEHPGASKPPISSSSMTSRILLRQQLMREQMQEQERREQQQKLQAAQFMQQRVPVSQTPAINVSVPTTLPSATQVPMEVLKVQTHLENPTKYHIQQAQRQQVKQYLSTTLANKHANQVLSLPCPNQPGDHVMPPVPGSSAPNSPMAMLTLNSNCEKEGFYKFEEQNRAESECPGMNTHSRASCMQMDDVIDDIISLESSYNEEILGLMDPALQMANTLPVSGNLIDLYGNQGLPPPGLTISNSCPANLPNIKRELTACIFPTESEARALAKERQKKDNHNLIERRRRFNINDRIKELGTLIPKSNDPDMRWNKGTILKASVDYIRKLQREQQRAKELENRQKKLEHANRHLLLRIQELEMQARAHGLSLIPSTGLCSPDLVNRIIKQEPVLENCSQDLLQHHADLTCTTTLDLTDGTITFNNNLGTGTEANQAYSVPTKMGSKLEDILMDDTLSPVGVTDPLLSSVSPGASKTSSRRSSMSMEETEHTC

[4] = molecular target: T4, Zinc finger protein mex-5 (Caenorhabditis elegans, UniProt Q9XUB2); experiment: potency of MEX-5 RNA-binding blockers – biochemical, C. elegans, fluorescence polarization, dose response (AID 1960)
T4 sequence (Q9XUB2 whole entry): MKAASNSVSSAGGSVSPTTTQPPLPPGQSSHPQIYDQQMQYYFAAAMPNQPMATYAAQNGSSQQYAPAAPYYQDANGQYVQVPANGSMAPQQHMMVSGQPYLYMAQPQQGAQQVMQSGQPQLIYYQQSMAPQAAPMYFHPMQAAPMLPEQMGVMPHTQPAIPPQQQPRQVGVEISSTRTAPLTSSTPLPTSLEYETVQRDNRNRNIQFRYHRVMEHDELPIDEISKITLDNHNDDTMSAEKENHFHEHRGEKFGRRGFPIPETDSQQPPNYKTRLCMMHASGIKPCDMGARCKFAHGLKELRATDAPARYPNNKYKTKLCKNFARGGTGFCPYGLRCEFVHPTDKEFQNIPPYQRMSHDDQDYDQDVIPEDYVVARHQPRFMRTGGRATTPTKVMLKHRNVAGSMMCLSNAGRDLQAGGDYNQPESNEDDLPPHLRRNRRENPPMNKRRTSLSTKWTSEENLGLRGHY

SUMO-activating enzyme [5] = molecular target: T5, SUMO-activating enzyme (Homo sapiens, UniProt Q9UBT2); experiment: blockers of UBC9-mediated SUMO conjugation – biochemical, AlphaScreen, SUMOylation inhibitor project, confirmation (AID 2018); assay type: functional
T5 sequence (Q9UBE0 whole entry): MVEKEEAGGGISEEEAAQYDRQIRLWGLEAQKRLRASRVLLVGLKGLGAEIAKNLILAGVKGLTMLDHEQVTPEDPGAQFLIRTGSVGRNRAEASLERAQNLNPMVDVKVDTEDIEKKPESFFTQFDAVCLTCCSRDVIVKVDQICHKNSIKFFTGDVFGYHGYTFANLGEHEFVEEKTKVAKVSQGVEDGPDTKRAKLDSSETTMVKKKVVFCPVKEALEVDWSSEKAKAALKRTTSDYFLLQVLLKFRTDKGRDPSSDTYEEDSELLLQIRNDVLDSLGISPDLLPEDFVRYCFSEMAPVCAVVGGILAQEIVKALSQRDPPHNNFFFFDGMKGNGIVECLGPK
T5 sequence (Q9UBT2 whole entry): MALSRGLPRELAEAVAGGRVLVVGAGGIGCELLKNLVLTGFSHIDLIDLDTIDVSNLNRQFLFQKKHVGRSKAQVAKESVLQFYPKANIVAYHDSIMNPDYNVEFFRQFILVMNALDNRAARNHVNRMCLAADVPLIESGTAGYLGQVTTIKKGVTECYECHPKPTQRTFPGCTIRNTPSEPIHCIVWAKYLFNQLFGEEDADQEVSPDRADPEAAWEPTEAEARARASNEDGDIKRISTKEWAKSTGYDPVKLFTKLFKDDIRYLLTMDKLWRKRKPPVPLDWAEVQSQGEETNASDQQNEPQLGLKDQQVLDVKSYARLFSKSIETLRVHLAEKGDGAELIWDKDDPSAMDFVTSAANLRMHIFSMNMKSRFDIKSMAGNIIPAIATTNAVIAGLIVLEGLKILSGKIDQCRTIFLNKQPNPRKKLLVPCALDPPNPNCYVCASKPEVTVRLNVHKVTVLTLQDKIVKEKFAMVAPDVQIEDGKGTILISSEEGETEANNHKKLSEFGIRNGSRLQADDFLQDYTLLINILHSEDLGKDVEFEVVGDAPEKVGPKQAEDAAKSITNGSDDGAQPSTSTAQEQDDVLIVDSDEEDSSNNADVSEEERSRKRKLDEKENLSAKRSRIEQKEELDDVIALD

SUMO-activating enzyme [6] = molecular target: T5, SUMO-activating enzyme; experiment: blockers of SAE1/SAE2–UBC9 SUMO transfer – biochemical, HTRF, uHTS, primary screen (AID 2006); assay type: protein-complex assay
Albumin = Albumin (Bos taurus, UniProt P02769); experiment: Counterscreen for inhibitors of T-cell receptor (TCR)-CD3 interaction: Fluorescence-based biochemical high throughput dose response assay to identify inhibitors of T-cell receptor (TCR)-CD3 interaction using a TAMRA-labeled BSA probe.; assay type: functional
Sequence of Albumin (P02769 whole entry): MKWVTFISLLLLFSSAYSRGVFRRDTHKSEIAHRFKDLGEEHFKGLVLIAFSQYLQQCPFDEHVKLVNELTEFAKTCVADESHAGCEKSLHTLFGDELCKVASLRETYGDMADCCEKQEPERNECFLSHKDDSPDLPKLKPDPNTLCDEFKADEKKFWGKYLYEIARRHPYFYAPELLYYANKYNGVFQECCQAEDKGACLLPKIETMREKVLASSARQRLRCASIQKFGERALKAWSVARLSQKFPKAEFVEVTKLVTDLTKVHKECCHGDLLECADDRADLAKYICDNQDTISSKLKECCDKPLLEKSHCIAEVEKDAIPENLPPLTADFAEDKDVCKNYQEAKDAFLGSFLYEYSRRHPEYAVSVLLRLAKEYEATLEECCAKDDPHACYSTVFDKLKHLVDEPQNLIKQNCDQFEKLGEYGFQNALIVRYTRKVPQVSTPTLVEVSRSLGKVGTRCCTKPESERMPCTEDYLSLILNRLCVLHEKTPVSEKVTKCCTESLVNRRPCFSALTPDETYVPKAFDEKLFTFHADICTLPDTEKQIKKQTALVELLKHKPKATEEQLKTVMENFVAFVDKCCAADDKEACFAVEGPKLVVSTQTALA

Leucine aminopeptidase = molecular target: T6, Leucine aminopeptidase (Plasmodium falciparum 3D7, UniProt Q8IL11); experiment: P. falciparum M17LAP inhibitors, primary screen, biochemical, fluorogenic H-Leu-NHMec substrate, 1536-well (AID 1619); assay type: functional
T6 sequence (Q8IL11 whole entry): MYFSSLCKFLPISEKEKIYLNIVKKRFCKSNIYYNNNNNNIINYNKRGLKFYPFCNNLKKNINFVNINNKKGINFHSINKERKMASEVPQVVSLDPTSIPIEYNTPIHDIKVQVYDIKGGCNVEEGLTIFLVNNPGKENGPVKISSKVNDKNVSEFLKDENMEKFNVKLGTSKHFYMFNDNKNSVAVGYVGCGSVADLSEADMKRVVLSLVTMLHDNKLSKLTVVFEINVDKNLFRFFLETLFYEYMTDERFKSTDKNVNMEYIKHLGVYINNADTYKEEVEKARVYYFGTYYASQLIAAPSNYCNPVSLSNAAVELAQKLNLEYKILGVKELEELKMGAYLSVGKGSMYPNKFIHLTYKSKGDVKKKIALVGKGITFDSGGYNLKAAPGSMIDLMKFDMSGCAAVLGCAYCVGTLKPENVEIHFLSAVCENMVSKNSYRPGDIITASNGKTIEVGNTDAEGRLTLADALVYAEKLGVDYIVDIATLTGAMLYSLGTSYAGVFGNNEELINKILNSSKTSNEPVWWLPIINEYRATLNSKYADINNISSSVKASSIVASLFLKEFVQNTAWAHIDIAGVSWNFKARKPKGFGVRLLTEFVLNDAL

Aminopeptidase N = molecular target: T7, Aminopeptidase N (Plasmodium falciparum FcB1/Columbia, UniProt O96935); experiment: malaria alanyl aminopeptidase activity blockers – biochemical, fluorogenic H-Leu-NHMec substrate, 1536-well (AID 1445); set-up: species or system Plasmodium falciparum 3D7, 3D7
T7 sequence (O96935 whole entry): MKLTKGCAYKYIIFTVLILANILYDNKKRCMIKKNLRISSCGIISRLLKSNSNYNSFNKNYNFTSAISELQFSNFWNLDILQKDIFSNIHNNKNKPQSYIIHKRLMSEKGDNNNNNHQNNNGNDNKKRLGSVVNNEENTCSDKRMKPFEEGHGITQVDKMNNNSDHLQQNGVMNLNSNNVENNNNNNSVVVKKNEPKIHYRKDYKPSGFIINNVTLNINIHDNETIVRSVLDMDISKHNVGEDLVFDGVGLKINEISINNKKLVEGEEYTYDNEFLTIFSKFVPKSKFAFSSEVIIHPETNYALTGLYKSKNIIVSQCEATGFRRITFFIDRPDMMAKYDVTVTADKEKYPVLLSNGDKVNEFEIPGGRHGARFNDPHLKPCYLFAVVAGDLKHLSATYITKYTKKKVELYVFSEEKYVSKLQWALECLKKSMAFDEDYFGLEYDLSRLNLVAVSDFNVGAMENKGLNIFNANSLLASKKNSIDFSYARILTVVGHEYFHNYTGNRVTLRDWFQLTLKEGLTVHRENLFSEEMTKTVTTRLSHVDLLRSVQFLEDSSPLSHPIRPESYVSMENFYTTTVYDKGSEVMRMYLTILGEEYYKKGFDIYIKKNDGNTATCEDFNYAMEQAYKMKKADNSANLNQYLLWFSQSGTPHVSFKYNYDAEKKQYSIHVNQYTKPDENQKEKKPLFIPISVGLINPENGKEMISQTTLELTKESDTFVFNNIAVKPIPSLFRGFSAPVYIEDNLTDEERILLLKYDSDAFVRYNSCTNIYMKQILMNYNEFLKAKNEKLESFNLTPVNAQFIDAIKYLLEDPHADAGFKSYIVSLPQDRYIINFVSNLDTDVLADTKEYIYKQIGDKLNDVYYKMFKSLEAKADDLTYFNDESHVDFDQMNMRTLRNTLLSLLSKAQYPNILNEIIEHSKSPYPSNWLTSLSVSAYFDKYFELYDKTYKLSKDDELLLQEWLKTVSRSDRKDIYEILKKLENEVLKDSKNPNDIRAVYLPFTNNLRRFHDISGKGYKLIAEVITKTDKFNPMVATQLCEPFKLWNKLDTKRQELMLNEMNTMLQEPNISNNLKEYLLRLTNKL

[7] = molecular target: T8, RNA-binding protein pos-1 (Caenorhabditis elegans, UniProt G5EF15); experiment: disruptors of C. elegans POS-1 RNA interaction – biochemical, fluorescence polarization, dose response (AID 1964);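 further: purified POS-1 fused to maltose binding protein made in E. coli; potency of compounds blocking POS-1 binding to fluorescent RNA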
T8 sequence (G5EF15 whole entry): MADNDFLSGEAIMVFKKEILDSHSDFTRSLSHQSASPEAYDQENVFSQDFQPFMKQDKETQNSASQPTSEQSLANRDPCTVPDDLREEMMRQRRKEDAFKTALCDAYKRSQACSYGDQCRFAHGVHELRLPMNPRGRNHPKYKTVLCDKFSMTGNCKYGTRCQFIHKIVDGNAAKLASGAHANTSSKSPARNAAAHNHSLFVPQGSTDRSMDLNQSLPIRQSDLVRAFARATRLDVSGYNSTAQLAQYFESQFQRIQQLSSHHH

Nonstructural protein 1 = Nonstructural protein 1 (Influenza A virus, UniProt Q194T2); assay type: functional, Influenza A virus (A/California/07/2009(H1N1))
Sequence of Nonstructural protein 1 (Q194T2 whole entry): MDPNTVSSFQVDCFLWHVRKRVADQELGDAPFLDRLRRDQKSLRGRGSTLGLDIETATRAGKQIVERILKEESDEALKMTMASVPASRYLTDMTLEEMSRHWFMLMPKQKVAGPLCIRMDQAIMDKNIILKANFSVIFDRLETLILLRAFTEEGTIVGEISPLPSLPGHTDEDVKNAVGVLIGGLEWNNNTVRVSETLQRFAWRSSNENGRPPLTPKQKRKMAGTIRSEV

Streptococcus = experiment: GAS UMAA2166 growth inhibition – luminescence, BacTiterGlo, counter-screen for streptokinase expression inhibitor project, dose response (AID 1915); assay type: functional, organism-based;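 further: potency for reduction of bacterial viability or growth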
[8] = system: Streptococcus sp. 'group A'; experiment: Streptococcus pyogenes SK(-)GAS viability under kanamycin – luminescence, BacTiterGlo, confirmation, counter-screen for streptokinase expression inhibitor project, dose response (AID 1900); assay type: functional, organism-based
Cytochrome P450 1A2 = molecular target: T9, Cytochrome P450 1A2 (Homo sapiens, UniProt P05177);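 further: PubChem cytochrome P450 panel assay, CYP1A2 panel member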
T9 sequence (P05177 whole entry): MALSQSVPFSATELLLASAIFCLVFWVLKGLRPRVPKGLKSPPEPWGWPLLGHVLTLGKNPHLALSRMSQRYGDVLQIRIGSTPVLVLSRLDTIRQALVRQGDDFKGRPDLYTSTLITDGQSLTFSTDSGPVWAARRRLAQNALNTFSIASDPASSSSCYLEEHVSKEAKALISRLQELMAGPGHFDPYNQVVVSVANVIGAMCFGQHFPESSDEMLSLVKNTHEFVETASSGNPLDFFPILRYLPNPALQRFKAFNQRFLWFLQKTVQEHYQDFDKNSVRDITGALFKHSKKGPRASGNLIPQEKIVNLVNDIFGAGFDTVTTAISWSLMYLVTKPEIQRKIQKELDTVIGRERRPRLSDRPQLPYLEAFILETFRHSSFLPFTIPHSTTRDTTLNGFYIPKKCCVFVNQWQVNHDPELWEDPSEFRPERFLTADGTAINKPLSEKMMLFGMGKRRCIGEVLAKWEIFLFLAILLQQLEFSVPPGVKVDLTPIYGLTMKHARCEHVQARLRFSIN

How did the IC50 [1] turn out when `C=CCNC(=S)Nc1sc2c(c1C(=O)OCC)CCN(C(=O)OCC)C2` was run?
Its IC50 is 12.4 µM (active).

What about the IC50 [2] of the same compound?
The IC50 was > 20 µM (inactive).

What about the IC50 (Bcl-2-related protein A1) of the same compound?
Its IC50 is > 20 µM (inactive).

Which results are given for `C#CCOCCOCCOCCNc1nc(N2CCN(C(=O)[C@H](CCCCN)n3cc([C@@H](N)[C@H](C)CC)nn3)CC2)nc(N2CCN(C(=O)[C@H](CCCCN)n3cc([C@@H](N)CC(N)=O)nn3)CC2)n1`?
IC50 [1]: 10.3 µM (active); IC50 [2]: 16.6 µM (active); IC50 (Bcl-2-related protein A1): > 20 µM (inactive)

With `CCOc1ccc(N(CC(=O)NCc2ccc(OC)cc2)S(=O)(=O)c2c(C)noc2C)cc1` as the compound, how does the AC50 (Cytochrome P450 2C19) read?
The AC50 was 0.282 µM (inconclusive).

What about the AC50 (Cytochrome P450 2D6) of the same compound?
The AC50 was “inconclusive”.

How did the AC50 [3] turn out when `[2H]C(CCOS(N)(=O)=O)c1ccc(C(C)(C)C)cc1` (stereo not drawn) was run?
Its AC50 is 0.487 µM (active).

For `O=C(CSc1ccc(Cl)cc1)NC1CCCC1`, which AC50 [3] is on record?
Its AC50 is 14.2 µM (active).

What does the source list for `O=C1NC(=O)N(Cc2ccco2)C(=O)/C1=C/NNC(=O)c1ccccc1O`?
EC50 [4]: 16.9 µM (active); IC50 (SUMO-activating enzyme [5]): 2.29 µM (active); IC50 (SUMO-activating enzyme [6]): 15 µM (active); IC50 (Albumin): > 94 µM (inactive); IC50 (Leucine aminopeptidase): 50.3 µM (active); IC50 (Aminopeptidase N): 26.2 µM (active); EC50 [7]: 15.5 µM (active); IC50 (Nonstructural protein 1): 42.3 µM (active); EC50 (Streptococcus): 6.03 µM (active); EC50 [8]: 3 µM (active)

Which results are given for `CC1Cc2ccccc2N1C(=O)CSCC(=O)O` (stereo not drawn)?
AC50 (Cytochrome P450 1A2): 20 µM (inconclusive); AC50 (Cytochrome P450 2C19): 11.2 µM (inconclusive); AC50 (Cytochrome P450 2D6): inconclusive
